Read-outs that look alike come from different tables or passages of the source.
Tests used:
glucocorticoid receptor = biological target: T1, glucocorticoid receptor (Rattus norvegicus, UniProt P06536); experiment: Glucocorticoid receptor assay: inhibition of [3H]-dexamethasone binding, liver cytosol; conditions: for inhibition at 1 µM / inhibition at 0.01 µM: Table 4′; for inhibition at 1 µM: read-out: % Inhibition Glucocorticold Receptor E^−6; for inhibition at 0.01 µM: read-out: % Inhibition Glucocorticold Receptor E^−8
T1 construct: from tissue; host or cells: liver cytosol of male Sprague-Dawley rats
T1 sequence (P06536 1-795): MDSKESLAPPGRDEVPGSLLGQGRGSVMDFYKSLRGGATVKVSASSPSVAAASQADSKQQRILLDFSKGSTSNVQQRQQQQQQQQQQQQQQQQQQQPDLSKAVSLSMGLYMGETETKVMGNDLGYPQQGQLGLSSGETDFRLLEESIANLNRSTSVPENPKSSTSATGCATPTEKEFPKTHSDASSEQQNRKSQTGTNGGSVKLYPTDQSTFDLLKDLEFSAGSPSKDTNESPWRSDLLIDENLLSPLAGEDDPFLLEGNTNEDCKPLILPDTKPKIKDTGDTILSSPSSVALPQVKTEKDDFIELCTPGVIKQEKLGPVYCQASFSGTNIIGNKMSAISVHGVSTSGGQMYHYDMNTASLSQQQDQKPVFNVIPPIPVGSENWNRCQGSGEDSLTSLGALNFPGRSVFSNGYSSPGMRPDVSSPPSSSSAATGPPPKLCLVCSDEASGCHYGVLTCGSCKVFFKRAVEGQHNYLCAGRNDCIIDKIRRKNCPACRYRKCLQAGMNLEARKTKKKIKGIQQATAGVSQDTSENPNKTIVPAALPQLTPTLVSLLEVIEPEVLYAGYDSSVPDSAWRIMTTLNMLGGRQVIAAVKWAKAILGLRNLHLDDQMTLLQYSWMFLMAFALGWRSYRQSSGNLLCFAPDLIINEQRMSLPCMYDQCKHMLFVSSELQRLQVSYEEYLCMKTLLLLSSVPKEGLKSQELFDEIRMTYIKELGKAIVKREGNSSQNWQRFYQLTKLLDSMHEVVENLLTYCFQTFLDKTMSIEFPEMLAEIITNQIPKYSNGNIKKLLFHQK
Description: The manner in which the percentage of inhibition is determined is described in “Other Tests; F-Glucocorticoid Receptor Assay”.
[6,7-^3H(N)]-Dexamethasone (39 Ci/mmol) was purchased from New England Nuclear (Lachine, Québec, Canada) while unlabeled dexametasone was obtained from Steraloids (Wilton, N.H.). All other chemicals were of analytical grade.
Stock solutions of the unlabeled steroids were kept at 4° C. in ethanol. The desired steroid solutions were then prepared by appropriate dilution in buffer B (10 mM Tris-HCl, 1.5 mM EDTA, 10 mM α-monothioglycerol, pH 7.4) containing 30% ethanol.
Male Sprague-Dawley rats weighing 200-300 g were obtained from Charles-River Inc. (St-Constant, Québec, Canada). The rats were killed by cervical dislocation and the liver were rapidly removed, dissected free from adhering tissue and frozen on dry-ice. Tissues were kept at −80° C. until use.
All procedures were performed at 4° C. Tissues were eminced and homogenized in 10 vol (w/v) of buffer A (25 mM Tris-HCl, 1.5 mM EDTA, 10 mM α-monothioglycerol, 10% glycerol, 10 mM sodium molybdate, pH 7.4) using a Polytron PT-10 homogenizer (Brinkmann Instruments, Canada) at a setting of 5 for two periods of 10 sec, with intervals of 10 sec for cooling. The homogenate was then centrifuged at 105,000×g for 90 min. The supernatant was used immediately for assay.
Glucocorticoid binding was measured using the dextran-coated charcoal adsorption technique. Incubations were performed at 0-4° C. for 16-18 h using 100 μl of cytosol, 100 μl of [^3H]-Dexamethasone (5 nM final) and 100 μl of unlabeled compounds at the indicated concentrations. Each concentration was done in triplicate. Assay was ended with 300 μl of DCC (2.5% Norit A and 0.25% Dextran T-70 in Buffer B). After 10 min of incubation, tubes were centrifuged at 2,000×g for 10 min. and decanted in vials with 6 ml of BCS liquid scintillation (New England Nuclear, Dupont). The radioactivity was measured in a Beckman counter at a counting efficiency of 35%.

[1] = system: Shionogi mouse mammary carcinoma cells; experiment: Antiandrogenic activity: inhibition of DHT-induced proliferation of Shionogi cells; format: cell-based; conditions: for IC50: Mus musculus
Description: The manner in which the inhibition is determined is described in “Other Tests; B-Androgenic/Antiandrogenic Activity”. Lower numbers are desirable. ND means that a determination was not done.
Androgenic/antiandrogenic activity of some preferred compounds has been measured using the Shionogi mouse mammary carcinoma cells.
Minimal essential culture medium (MEM), non-essential amino acids, and fetal calf serum were purchased from Flow Laboratories. In order to remove endogenous steroids, serum was incubated overnight at 4° C. with 1% activated charcoal (Norit A, Fisher) and 0.1% Dextran T-70 (Pharmacia). A 2-h supplementary adsorption was performed at 25° C. in order to further remove protein-bound steroids. Serum was also inactivated by a 20-min incubation at 56° C.
5α-dihydrotestosterone (DHT) was obtained from Steraloids. The antiandrogen hydroxyflutamide (OH-FLU) was kindly supplied by Drs. T. L. Nagabuschan and R. Neri (Schering Corporation, Kenilworth, U.S.A.).
Shionogi male mice bearing androgen-sensitive mammary tumors were obtained from Drs. Keishi Matsumoto, Osaka, Japan, and Yvonne Lefebvre, Ottawa, Canada. For primary culture, tumors were excised and washed in ice-cold sterile 25 mM Hepes buffer (137 mM NaCl; 5 mM KCl; 0.7 mM Na2HPO4; 10 mM glucose, pH 7.2). After mincing with scissors, the tumor minces were digested for 2 h at 37° C. in Hepes buffer containing 3.8 mg/ml collagenase (Clostridium, Boehringer), 1.5 mg/ml hyaluronidase II (Sigma), and 3% bovine serum albumin fraction V (Schwartz-Mann). Dispersed cells were collected by centrifugation (500×g for 10 min), washed twice by suspension in minimal essential medium (MEM) containing 5% dextran-coated charcoal-treated fetal calf serum (DCC-FCS), 1% non-essential amino acids, 10 IU/ml penicillin, 50 μg/ml streptomycin, and 100 nM dihydrotestosterone (DHT) (Steraloids).
Cells were plated in the same medium at a density of 75 000 cells/ml in 75 cm^2 flasks under an atmosphere of 5% carbon dioxide in air at 37° C. The medium was changed weekly. The steroids and antisteroids were dissolved in ethanol and kept in stock solutions chosen to yield final ethanol concentrations less than 0.01% in the culture medium.
Cells were subcultured at near-confidence by gentle digestion in a solution of 0.1% pancreatin (Flow Laboratories) in Hepes buffer containing 3 mM ethylenediaminetetraacetic acid (EDTA) (pH 7.2). Cells were pelleted by centrifugation, resuspended in culture medium, counted in a Coulter counter, and replated as described above. Soft agar cloning was performed as described (Stanley et al., Cell 10: 35-44, 1977) in the presence of 100 nM DHT.
Cells were plated in 24-well plates at a density of 20 000 cells/well. The indicated increasing concentrations of agents were added to triplicate dishes, and cells were grown for 10-12 days with changes of medium every 3-4 days. Cell number was measured by direct counting in a Coulter counter.
ED50 values of action of DHT and glucocorticoids were calculated according to a least-square regression as described (Rodbard, Endocrinology 94: 1427-1431, 1974). Statistical significance was calculated according to a multiple-range test (Kramer, Biometrics 12: 307-310,1956).

[2] = Table 4′, DHT-induced proliferation, E^−6 (10^−6 M)
[3] = Table 4′, DHT-induced proliferation, E^−7
[4] = read-out: Antiandrogenic Activity Shionogi, DHT [IC50]

Compound | Antiandrogenic Activity Shionogi, DHT E^−6 [1, 2] | Antiandrogenic Activity Shionogi, DHT E^−7 [1, 3] | also measured
CC12C=CC(=O)C=C1C=CC1C2CCC2(C)C(=O)C3(CCCCC3)CC12 (stereo not shown) [CS-204] |  |  | % Inhibition Glucocorticoid Receptor E^−6 (glucocorticoid receptor; E^−6): 0%; % Inhibition Glucocorticoid Receptor E^−8 (glucocorticoid receptor; E^−8): 0%; Antiandrogenic Activity Shionogi, DHT E^−6 ([1]; with DHT, E^−6): −13; Antiandrogenic Activity Shionogi, DHT E^−7 ([1]; with DHT, E^−7): −25
CC1(C)CCC2(CCC3C4CCc5ccccc5C4CCC32C)OC1=O (stereo not shown) [CS-224] | −11% | 23% | inhibition at 1 µM (glucocorticoid receptor; E^−6): 5%; inhibition at 0.01 µM (glucocorticoid receptor; E^−8): 1%
CC(=O)O[C@]1(C)C(=O)CCC2C3C=C(C)C4=CC(=O)C=C[C@]4(C)C3CC[C@@]21C (stereo partly shown) [CS-237] |  |  | % Inhibition Glucocorticoid Receptor E^−6 (glucocorticoid receptor; E^−6): 69%; % Inhibition Glucocorticoid Receptor E^−8 (glucocorticoid receptor; E^−8): 7%; IC50 ([1]; with DHT, value in square brackets on second line, read-out: Antiandrogenic Activity Shionogi DHT [IC50 (nM)]): 95 nM; Antiandrogenic Activity Shionogi, DHT E^−6 ([1]; with DHT, E^−6): −106; Antiandrogenic Activity Shionogi, DHT E^−7 ([1]; with DHT, E^−7): −51
CSCCOc1ccc2c(c1)CCC1C2CCC2(C)C1CCC21CCCC(=O)O1 [CS-242, 3-Methylthioethyloxy-1,3,5(10)-estratrien-17(R)-spiro-2′-(6′-oxo) Tetrahydropyran] | −66% | 9% | inhibition at 1 µM (glucocorticoid receptor; E^−6): 0%; inhibition at 0.01 µM (glucocorticoid receptor; E^−8): 0%
CCC(=O)O[C@]1(C(C)=O)CCC2C3C=C(C)C4=CC(=O)C[C@H](C)[C@]4(C)C3CC[C@@]21C (stereo partly shown) [CS-243] |  |  | % Inhibition Glucocorticoid Receptor (glucocorticoid receptor; E^−6): 29%; % Inhibition Glucocorticoid Receptor (glucocorticoid receptor; E^−8): 0%; Antiandrogenic Activity Shionogi, DHT ([1]; E^−6): −129; Antiandrogenic Activity Shionogi, DHT ([1]; E^−7): −102; IC50 [1, 4]: 11 nM
CCCC(=O)OC1(C(C)=O)CCC2C3C=C(C)C4=CC(=O)CC(C)C4(C)C3CCC21C (stereo not shown) [CS-245] |  |  | % Inhibition Glucocorticoid Receptor (glucocorticoid receptor; E^−6): 43%; % Inhibition Glucocorticoid Receptor (glucocorticoid receptor; E^−8): 0%; Antiandrogenic Activity Shionogi, DHT ([1]; E^−6): −109; Antiandrogenic Activity Shionogi, DHT ([1]; E^−7): −106; IC50 [1, 4]: 12 nM
CC1=C[C@@H]2[C@H](CC[C@]3(C)C(=O)C4(CCCCC4)C[C@@H]23)[C@@]2(C)CCC(=O)C=C12 [EM-925] |  |  | Antiandrogenic Activity Shionogi, DHT E^−6 ([1]; with DHT, E^−6): −7; Antiandrogenic Activity Shionogi, DHT E^−7 ([1]; with DHT, E^−7): 15
COCCOc1cc2c(cc1F)C1CCC3(C)C(CCC34CCC(C)(C)C(=O)O4)C1CC2 (stereo not shown) [EM-1393-CS] | −104% | 27% | 
CC1(C)CCC2(CCC3C4CCc5cc(C(=O)OCc6ccccc6)ccc5C4CCC32C)OC1=O (stereo not shown) [EM-1398] | −37% | 0% | 
COc1cc2c(cc1C(F)(F)F)C1CCC3(C)C(CCC34CCC(C)(C)C(=O)O4)C1CC2 [EM-1409, 3-Methoxy-2-trifluoromethyl-1,3,5(10)-estratrien-17(R)-spiro-2′-(5′,5′-dimethyl-6′-oxo)tetrahydropyran] | −105% | −5% | 
COCCOc1cc2c(cc1C(=O)N(C)C)C1CCC3(C)C(CCC34CCC(C)(C)C(=O)O4)C1CC2 (stereo not shown) [EM-1413-CS] | −44% |  | 
CC1(C)CCC2(CCC3C4CCc5cc(O)c(C#N)cc5C4CCC32C)OC1=O (stereo not shown) [EM-01645] | −10% | −6% | 
CC1(C)CCC2(CCC3C4CCc5cc(O)c(C(N)=O)cc5C4CCC32C)OC1=O (stereo not shown) [EM-01660] | −51% | −20% | 
CN(C)C(=O)c1cc2c(cc1O)CCC1C2CCC2(C)C1CCC21CCC(C)(C)C(=O)O1 (stereo not shown) [EM-01661-B] | −15% | 3% | 
COC(=O)c1cc2c(cc1O)CCC1C2CCC2(C)C1CCC21CCC(C)(C)C(=O)O1 (stereo not shown) [EM-01662] | −51% | −11% | 
CC12CCC3c4ccc(O)cc4CCC3C1CCC21CC=CC(=O)O1 [PB-132-140, 3-hydroxy-1,3,5(10)-estratrien-17(R)-spiro-2′-(4′,5′-dihydro-6′-oxo)pyran] | 0% | 16% | 
CC1CC(=O)OC2(CCC3C4CCc5cc(O)ccc5C4CCC32C)C1 [PB-132-142, 3-Hydroxy-1,3,5(10)-estratrien-17(R)-spiro-2′-(4′-methyl-6′-oxo)tetrahydropyran] | −13% | 0% | 
COC(=O)C1CCC2(CCC3C4CCc5cc(O)ccc5C4CCC32C)OC1=O [PB-132-146, 3-Hydroxy-1,3,5(10)-estratrien-17(R)-2′-(5′-methoxycarbonyl-6′-oxo)tetrahydropyran] | −40% | 14% | 
C=CCC1CCC2(CCC3C4CCc5cc(O)ccc5C4CCC32C)OC1=O [PB-132-152, 3-Hydroxy-1,3,5(10)-estratrien-17(R)-2′-(5′-allyl-6′-oxo)tetrahydropyran] | −19% | 14% | 
